Molecules are shown by their SMILES. Where “and” joins values, the source holds several entries; their conditions need not be identical. Identical values can stand only once. Bounds are passed on as bounds.

Broadly, the IC50 is the concentration that gives 50% inhibition. A high value points to weaker potency in that assay.

What all share (assay): biochemical
The target in test [1] is BRAF (Homo sapiens, UniProt P15056).
Test [2] concerns the target T1, AXL (Homo sapiens, UniProt P30530).
T1 sequence (P30530 1-894): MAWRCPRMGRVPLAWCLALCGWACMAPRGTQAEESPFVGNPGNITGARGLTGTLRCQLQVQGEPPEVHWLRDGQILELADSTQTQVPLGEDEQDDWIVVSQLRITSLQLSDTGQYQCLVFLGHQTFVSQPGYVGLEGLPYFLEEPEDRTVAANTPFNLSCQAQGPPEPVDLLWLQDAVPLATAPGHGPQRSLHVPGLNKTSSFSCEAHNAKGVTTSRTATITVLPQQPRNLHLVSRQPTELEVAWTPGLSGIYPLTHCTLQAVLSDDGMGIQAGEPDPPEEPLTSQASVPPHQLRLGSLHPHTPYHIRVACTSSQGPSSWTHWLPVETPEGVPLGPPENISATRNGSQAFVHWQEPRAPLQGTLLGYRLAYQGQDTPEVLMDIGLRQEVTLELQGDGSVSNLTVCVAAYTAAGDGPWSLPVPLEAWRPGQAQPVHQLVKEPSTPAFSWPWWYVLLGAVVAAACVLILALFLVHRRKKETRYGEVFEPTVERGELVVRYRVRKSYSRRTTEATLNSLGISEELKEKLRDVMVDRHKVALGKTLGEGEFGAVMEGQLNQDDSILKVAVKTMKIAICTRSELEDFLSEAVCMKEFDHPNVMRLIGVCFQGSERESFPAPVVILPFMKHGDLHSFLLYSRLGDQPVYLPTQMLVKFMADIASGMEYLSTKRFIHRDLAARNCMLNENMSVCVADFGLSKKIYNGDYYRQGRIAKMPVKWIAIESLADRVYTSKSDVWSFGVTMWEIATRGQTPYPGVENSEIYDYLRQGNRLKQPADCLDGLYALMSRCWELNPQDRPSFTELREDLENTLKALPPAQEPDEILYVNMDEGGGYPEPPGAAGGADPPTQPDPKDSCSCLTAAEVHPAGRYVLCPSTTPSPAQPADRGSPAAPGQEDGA

Test [3] deals with T2, NEK9 (Homo sapiens, UniProt Q8TD19).
T2 sequence (Q8TD19 1-979): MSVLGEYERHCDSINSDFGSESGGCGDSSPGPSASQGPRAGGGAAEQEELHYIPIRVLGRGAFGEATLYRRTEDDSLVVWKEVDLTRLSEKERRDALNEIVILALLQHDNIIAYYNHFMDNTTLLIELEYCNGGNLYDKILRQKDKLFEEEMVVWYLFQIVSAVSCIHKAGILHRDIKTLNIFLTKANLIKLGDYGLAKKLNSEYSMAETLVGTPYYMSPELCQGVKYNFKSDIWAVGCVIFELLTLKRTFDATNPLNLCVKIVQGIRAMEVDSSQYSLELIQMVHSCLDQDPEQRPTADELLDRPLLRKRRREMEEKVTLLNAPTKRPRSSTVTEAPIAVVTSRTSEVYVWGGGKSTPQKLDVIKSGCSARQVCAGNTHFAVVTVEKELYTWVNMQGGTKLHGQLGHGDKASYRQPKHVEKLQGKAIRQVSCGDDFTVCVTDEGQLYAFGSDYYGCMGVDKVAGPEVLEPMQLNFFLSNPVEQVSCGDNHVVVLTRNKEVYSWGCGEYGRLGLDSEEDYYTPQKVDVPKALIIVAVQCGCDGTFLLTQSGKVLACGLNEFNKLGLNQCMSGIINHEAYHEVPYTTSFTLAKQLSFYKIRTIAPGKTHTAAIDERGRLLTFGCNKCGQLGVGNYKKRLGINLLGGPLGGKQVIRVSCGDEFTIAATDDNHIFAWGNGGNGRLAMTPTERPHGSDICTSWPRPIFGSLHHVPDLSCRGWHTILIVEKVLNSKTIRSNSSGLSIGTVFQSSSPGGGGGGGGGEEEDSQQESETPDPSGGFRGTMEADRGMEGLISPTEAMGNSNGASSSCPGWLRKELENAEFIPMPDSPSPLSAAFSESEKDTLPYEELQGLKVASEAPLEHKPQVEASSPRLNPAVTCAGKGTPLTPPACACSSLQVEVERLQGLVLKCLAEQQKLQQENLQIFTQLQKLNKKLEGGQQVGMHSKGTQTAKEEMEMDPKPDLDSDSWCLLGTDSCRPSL

The target of test [4] is PRKCB (Homo sapiens, UniProt P05771).
PRKCB, sequence (P05771 whole entry): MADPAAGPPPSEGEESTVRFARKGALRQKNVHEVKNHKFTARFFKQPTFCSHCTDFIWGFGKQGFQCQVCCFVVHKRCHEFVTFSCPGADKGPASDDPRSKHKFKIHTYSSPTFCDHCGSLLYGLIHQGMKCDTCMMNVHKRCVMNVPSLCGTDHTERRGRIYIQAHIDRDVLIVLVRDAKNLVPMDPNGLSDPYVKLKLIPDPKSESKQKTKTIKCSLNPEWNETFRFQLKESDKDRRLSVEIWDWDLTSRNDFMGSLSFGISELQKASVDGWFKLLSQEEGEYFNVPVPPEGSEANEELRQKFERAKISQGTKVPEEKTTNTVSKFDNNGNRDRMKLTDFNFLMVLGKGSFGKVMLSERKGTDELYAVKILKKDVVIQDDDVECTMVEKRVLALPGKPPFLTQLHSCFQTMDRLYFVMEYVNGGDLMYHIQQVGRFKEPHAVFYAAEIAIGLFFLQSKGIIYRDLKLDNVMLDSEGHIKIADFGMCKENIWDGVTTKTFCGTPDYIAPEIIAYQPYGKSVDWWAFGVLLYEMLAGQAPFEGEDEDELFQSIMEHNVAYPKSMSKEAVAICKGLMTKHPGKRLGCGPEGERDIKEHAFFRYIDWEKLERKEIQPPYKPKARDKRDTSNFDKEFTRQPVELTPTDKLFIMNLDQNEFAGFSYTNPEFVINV
The target of test [5] is T3, ITK (Homo sapiens, UniProt Q08881).
T3 sequence (Q08881 1-620): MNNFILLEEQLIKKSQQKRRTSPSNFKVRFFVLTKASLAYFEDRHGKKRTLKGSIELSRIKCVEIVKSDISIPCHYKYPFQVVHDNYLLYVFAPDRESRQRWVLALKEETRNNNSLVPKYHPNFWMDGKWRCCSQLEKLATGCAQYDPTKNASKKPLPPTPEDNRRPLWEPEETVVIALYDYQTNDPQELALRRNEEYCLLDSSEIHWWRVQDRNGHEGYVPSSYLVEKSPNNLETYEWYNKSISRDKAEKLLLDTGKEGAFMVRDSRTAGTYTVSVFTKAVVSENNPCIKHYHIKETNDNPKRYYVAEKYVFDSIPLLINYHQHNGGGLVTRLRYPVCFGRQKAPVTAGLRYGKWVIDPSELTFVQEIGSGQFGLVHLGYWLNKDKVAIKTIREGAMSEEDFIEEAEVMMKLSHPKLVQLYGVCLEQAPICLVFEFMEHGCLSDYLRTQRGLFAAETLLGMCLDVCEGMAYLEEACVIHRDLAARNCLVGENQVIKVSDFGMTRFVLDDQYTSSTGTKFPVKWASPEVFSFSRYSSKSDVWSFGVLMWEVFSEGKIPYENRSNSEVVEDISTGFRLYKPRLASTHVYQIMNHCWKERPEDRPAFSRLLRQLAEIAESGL

BRAF, sequence (P15056 whole entry): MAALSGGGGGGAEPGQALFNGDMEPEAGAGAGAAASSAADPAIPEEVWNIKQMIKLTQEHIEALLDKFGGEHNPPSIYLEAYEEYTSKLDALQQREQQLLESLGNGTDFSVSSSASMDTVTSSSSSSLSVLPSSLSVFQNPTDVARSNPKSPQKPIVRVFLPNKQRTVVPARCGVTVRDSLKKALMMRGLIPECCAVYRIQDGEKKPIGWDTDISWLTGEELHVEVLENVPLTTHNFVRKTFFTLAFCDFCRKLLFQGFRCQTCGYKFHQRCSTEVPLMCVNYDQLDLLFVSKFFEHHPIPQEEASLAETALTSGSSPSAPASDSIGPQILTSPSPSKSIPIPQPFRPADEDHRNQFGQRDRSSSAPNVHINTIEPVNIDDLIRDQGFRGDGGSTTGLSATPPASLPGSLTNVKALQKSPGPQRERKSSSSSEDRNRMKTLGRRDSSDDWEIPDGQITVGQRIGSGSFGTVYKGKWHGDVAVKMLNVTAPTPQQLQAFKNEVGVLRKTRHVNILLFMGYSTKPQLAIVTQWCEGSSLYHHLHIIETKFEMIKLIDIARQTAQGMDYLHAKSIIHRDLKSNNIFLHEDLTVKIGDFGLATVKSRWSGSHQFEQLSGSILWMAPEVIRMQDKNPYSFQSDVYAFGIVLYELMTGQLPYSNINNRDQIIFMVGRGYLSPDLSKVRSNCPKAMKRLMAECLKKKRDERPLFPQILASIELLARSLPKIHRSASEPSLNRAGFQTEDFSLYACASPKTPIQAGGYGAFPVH

Regarding `CN1CCN(c2ccc(Nc3ncc(C#N)c(Nc4ccccc4C(N)=O)n3)cc2)CC1.Cl` [TCMDC-134116], the IC50 in test [1] was 2000 nM; in test [2], 500 nM and 550 nM; in test [3], 770 nM and 580 nM; in test [4], 870 nM; in test [5], 140 nM.

As for `Cl.NCC1(c2nc(-c3ccc(Cl)c(O)c3)c(-c3ccncc3)[nH]2)CCCCC1` [TCMDC-141154], the IC50 is 1100 nM and 900 nM in test [1]; > 20000 nM in test [2]; > 20000 nM in test [3]; 12000 nM and 5900 nM in test [4]; > 20000 nM in test [5].

For the molecule `CN(C)CC(O)COc1ccc(Nc2ncc([N+](=O)[O-])c(Nc3ccccc3O)n2)cc1.O=C(O)C(F)(F)F` (stereo not drawn) [TCMDC-141399], the IC50 was > 20000 nM in test [1]; > 20000 nM in test [2]; > 20000 nM in test [3]; > 20000 nM in test [4]; 1700 nM in test [5].

For the origin of these results see publication PMC4774911, “Biochemical Screening of Five Protein Kinases from Plasmodium falciparum against 14,000 Cell-Active Compounds” (PLoS ONE, 2016).
